Reference: patent publication US20080207673A1, “Method for Treating Cancer, Coronary, Inflammatory and Macular Disease, Combining the Modulation of Zinc-and/or Copper Dependent Proteins” (priority 2005, published 2008)

Columns and labels:
HCV RNA Replicons = assay: HCV RNA replicon antiviral activity testing (luciferase); format: cell-based, Hepatitis C virus; settings: for inhibition at 20 µM: Hepatitis C virus, 20 micromolar, read-out: Antiviral Activity (luciferase, percent inhibition of virus control)
Huh7 ET = assay: Cytotoxicity in the HCV replicon cell line (actively dividing cells); format: cell-based; settings: single high test concentration, 20 micromolar
Description: The cell line used was Huh7 ET.

Aβ (1-40) = biological target: T1, Aβ (1-40) (Homo sapiens, UniProt P05067); assay: Thioflavin T fluorometric assay of metal-ion induced Aβ aggregation; format: biochemical; settings: test compound 10 μg/ml, 24 hours
T1 construct: A 5 mg/ml stock solution of Aβ (1-40) (delivered from Bachem (CH)); purchased Bachem (CH)
T1 sequence (P05067 672-711 limits assumed): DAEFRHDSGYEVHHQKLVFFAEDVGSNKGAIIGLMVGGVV
Method: A 5 mg/ml stock solution of Aβ (1-40) (delivered from Bachem (CH)) was freshly prepared before each experiment by dissolving the lyophilized peptide in 0.01 M HCl, followed by subsequent dilution 1.1 with 0.01 M NaOH to yield a neutral pH. Aliquot of Aβ (1-40) were diluted in PBS (pH 7.4) to 100 [mu]M and incubated at a total volume of 30 μ/l for 24 hours at room temperature. For co-incubation experiments, the indicated concentrations of metal ions and/or aliquot of test compounds were added. The test compounds were added to a final molar concentration of 10 μg/ml.
The amyloid formation was quantified by a thioflavin T fluorometric assay. Thioflavin binds specifically to amyloid and this introduces a shift in its emission spectrum and a fluorescent signal proportional to the amount of amyloid is formed. After incubation, Aβ (1-40) peptides were added to PBS (pH 6.0) and 3 μM thioflavin T in a final volume of 1 ml. Fluorescence was monitored at excitation 454 nm and emission 482 nm using a Fluoroscan II fluorometer (Molecular devices, UK). A time scan of fluorescence was performed and three values after the decay reached a plateau (around 5 minutes) were averaged after subtracting the background fluorescence of 3 μM thioflavin T. For co-incubation experiments, fluorescence of test compound alone was determined. Samples were run in triplicate.
It was studied whether the two compounds had any effect on metal-ion catalysed Aβ aggregation, especially the aggregation caused by Zn and Cu.

PC12 cells = assay: MTT reduction, Aβ (25-35) induced toxicity in PC12 cells; format: cell-based, Rat; settings: 10 μg phanquinone per ml
Method: Aβ (25-35) was delivered by Bachem (CH) or Sigma (USA) and dissolved in phosphate buffered saline (PBS) at pH 7, 4, 2 hours prior to application.
Rat PC12 pheochromocytoma cells were grown in Dulbecco's modified Eagle's medium (DMEM) containing 1% penicillin-streptomycin, 5% fetal calf serum and 10% horse serum in humidified incubator with 5% CO2.
PC12 cells were plated on 96-wells microtiter plates in 100 μl of the appropriate medium. After 24 hours the indicated concentrations of Aβ (25-35) peptide was added alone or together with phanquinone in the designated concentrations. Incubation continued for 24 hours. Following incubation, MTT reduction was measured using a commercially available assay according to the manufacturer's (Boehringer Mannheim) instructions. Assay values obtained by vehicle alone were defined as 100%.
MTT is a substrate for intracellular and plasma membrane oxidoreductases and has been widely used to measure reductions of cell redox activity.
To test the effect of phanquinone on Aβ (25-35) induced toxicity in PC12 cells, PC12 cells were exposed to Aβ (25-35) peptide concentrations ranging from 0 to 10 μM. In the absence of phanquinone (i.e. only vehicle added) Aβ (25-35) produced a dose-dependent inhibition of MTT reduction. […]

hepatitis B (HBV) = assay: NIH hepatitis B screening; format: cell-based, hepatitis B virus; settings: negative because of cytotoxicity of the cell line used
Description: The HBV research is run by the University of Georgetown (Dr. Brent Korba). The results with HBV were negative at this point because of cytotoxicity of the cell line used.

[1] = brain; cited from earlier work
[2] = cited from earlier work
MMP-1 = biological target: T2, MMP-1 (Homo sapiens, UniProt P03956); assay: MMP enzyme assay, fluorometric; format: biochemical
T2 sequence (P03956 100-469): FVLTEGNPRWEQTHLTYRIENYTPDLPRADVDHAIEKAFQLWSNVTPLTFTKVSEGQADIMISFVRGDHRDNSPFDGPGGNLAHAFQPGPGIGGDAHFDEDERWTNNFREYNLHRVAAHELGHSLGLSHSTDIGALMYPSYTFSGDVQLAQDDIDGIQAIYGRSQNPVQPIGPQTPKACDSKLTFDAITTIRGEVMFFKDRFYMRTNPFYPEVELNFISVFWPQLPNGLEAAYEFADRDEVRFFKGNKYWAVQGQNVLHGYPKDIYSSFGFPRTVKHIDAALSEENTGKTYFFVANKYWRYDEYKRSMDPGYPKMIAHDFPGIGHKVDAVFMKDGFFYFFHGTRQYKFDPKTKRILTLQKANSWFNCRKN
Method: (§1) An enzyme assay was conducted with five of the enzymes belonging to the MMP group. Specifically, the assay was conducted for MMP-1, MMP-2, MMP-3, MMP-7, and MMP-9 at various concentrations.
(§2) A test substrate of Mca-Pro-Leu-Gly-Leu-Dpa-Ala-Arg-NH2 was subsequently added to obtain a concentration of 25 μM. MMP-1 was incubated for 2 hours at 37EC, MMP-2 was incubated for 3 hours at 25EC, MMP-3 was incubated for 90 min at 37EC. MMP-7 was incubated for 90 min at 37EC, and MMP-9 was incubated for 2 hours at 25 degrees Celsius. The activity of the enzymes was measured by fluorometric quantisation of Mca-Pro-Leu-Gly-OH.

MMP-2 = biological target: T3, MMP-2 (Homo sapiens, UniProt P08253); assay: MMP enzyme assay, fluorometric; format: biochemical
T3 sequence (P08253 110-660): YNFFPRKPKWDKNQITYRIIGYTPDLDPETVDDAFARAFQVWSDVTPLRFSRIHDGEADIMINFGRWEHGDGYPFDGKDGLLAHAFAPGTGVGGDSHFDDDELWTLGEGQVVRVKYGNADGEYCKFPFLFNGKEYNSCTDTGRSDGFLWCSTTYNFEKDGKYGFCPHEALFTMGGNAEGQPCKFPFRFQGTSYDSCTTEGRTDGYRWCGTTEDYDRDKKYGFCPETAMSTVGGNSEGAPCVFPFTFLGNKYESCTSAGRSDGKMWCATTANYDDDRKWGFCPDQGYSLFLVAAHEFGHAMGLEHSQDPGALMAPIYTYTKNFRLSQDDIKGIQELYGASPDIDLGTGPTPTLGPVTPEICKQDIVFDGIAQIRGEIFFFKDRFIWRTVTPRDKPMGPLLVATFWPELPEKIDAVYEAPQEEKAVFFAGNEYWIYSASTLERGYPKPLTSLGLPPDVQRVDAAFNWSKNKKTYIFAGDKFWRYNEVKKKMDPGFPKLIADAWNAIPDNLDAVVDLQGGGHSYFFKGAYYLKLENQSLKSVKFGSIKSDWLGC
Method: as §1, §2

MMP-3 = MMP-3 (Homo sapiens, UniProt P08254); assay: MMP enzyme assay, fluorometric; format: biochemical
MMP-3, sequence (P08254 100-477, species assumed): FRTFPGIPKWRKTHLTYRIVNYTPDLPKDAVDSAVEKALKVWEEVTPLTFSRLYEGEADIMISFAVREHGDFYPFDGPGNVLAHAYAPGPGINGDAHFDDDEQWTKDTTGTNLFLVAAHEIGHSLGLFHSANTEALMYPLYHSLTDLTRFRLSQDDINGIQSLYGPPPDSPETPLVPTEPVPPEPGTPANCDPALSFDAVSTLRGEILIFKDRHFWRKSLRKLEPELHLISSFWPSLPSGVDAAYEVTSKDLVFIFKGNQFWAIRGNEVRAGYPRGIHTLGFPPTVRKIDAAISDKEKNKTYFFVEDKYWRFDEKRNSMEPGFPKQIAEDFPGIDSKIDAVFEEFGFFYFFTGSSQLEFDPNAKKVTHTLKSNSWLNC
Method: as §1, §2

MMP-7 = biological target: T4, MMP-7 (Homo sapiens, UniProt P09237); assay: MMP enzyme assay, fluorometric; format: biochemical
T4 sequence (P09237 95-267): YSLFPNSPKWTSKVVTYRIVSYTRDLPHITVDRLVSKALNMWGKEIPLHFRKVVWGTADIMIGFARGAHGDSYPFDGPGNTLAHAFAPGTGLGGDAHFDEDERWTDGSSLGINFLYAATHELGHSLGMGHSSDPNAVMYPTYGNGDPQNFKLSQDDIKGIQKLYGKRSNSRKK
Method: as §1, §2

MMP-9 = MMP-9 (Homo sapiens, UniProt P14780); assay: MMP enzyme assay, fluorometric; format: biochemical
MMP-9, sequence (P14780 94-707, species assumed): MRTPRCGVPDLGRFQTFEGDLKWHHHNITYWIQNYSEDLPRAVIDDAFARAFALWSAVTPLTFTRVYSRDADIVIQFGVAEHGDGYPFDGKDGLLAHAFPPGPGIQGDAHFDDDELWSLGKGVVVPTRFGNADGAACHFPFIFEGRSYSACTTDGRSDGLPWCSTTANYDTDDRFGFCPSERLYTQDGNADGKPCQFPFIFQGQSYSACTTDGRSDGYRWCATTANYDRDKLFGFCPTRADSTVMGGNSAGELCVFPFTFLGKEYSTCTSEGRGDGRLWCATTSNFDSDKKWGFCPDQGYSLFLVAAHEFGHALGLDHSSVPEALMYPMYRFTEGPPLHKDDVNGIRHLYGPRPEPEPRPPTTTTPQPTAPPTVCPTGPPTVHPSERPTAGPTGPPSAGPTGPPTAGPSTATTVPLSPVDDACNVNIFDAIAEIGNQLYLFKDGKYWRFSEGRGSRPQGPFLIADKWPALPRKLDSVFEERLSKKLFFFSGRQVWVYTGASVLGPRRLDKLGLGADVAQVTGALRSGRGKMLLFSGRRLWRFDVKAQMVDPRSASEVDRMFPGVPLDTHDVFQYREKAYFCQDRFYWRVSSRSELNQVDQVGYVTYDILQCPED
Method: as §1, §2

[3] = cited from earlier work; remark: listed apart in the source
[4] = single high test concentration, Huh7 ET

Q: Which results are given for `O=C1C(=O)c2ncccc2-c2cccnc21` [Phanquinone, 4,7-phenanthroline-5,6-dione]?
A: inhibition at 20 µM (HCV RNA Replicons; [4]): 83.2%; activity against HCV RNA replicons (HCV RNA Replicons; retest with dose response curve, Huh7 ET): no activity; Comments (screening verdict) (HCV RNA Replicons; [4]): Toxic; Selectivity Index (HCV RNA Replicons; [4]): <1; Cytotoxicity (actively dividing cells, percent cell control) (Huh7 ET): 10.5%; reduction of Cu-induced aggregation of Aβ (1-40) (Aβ (1-40)): 50-60%; reduction of Zn-induced aggregation of Aβ (1-40) (Aβ (1-40)): approximately 10%; inhibition of MTT reduction by Aβ (25-35) (PC12 cells; Aβ 10 μM, 24 hours): around 10%; effect on the toxic effect of Aβ (25-35) (PC12 cells; Aβ as high as 1 μM): completely counteracted; results with HBV (hepatitis B (HBV)): negative; ability of copper chelation compared to clioquinol [1]: three times more pronounced; adverse effect on the nervous system ([2]; in vivo): no evidence; deaths, fetal malformations, drug interactions or carcinogenicity related to treatment ([2]; in vivo): no reports; tolerability ([2]; most often 200-400 mg/day for 7 to 10 days): well tolerated

Q: With `Oc1c(I)cc(Cl)c2cccnc12` [Clioquinol, 5-chloro-7-iodo-8-hydroxyquinoline] as the compound, how does the inhibition at 20 µM (HCV RNA Replicons; [4]) read?
A: 82.3%

Q: What about the “selectivity index S150” value (HCV RNA Replicons; retesting dose response) of the same compound?
A: over 4.8

Q: What about the “selectivity index S190” value (HCV RNA Replicons; retesting dose response) of the same compound?
A: 14

Q: What about the “Comments (screening verdict)” value (HCV RNA Replicons; [4]) of the same compound?
A: Potentially active

Q: And the “Cytotoxicity (actively dividing cells, percent cell control)” value (Huh7 ET)?
A: 73.3%

Q: What about the “reduction of Cu-induced aggregation of Aβ (1-40)” value (Aβ (1-40)) of the same compound?
A: approximately 30%

Q: What about the “reduction of Zn-induced aggregation of Aβ (1-40)” value (Aβ (1-40)) of the same compound?
A: more than 60%

Q: What about the inhibition at 100 µM (MMP-1) of the same compound?
A: 12%

Q: And the inhibition at 100 µM (MMP-2)?
A: 28%

Q: And the inhibition at 1000 µM (MMP-2)?
A: 26%

Q: What about the inhibition at 10000 µM (MMP-2) of the same compound?
A: 101%

Q: What about the inhibition at 100 µM (MMP-3) of the same compound?
A: 7%

Q: What about the inhibition at 100 µM (MMP-7) of the same compound?
A: 20%

Q: And the inhibition at 100 µM (MMP-9)?
A: 19%

Q: And the “results with HBV” value (hepatitis B (HBV))?
A: negative

Q: What about the solubility in water [3] of the same compound?
A: Practically insoluble in water
